Data: patent publication US4000297A, “N-p-chlorobenzoyl tryptophane, salts and compositions thereof” (priority 1971, dated 1976)
Counter-ions that a name gives are not always drawn. Like-named read-outs stand apart in the source and are kept apart here.

What was measured:
Solubility = assay type: physicochemical; details: for solubility / Solubility in water: water; for Solubility in water: in words
[1] = test system: gastric lesions from Indomethacin; assay: Protective activity against gastric lesions due to Indomethacin; assay type: in vivo, rats; details: for ED50: Rattus norvegicus, po, 4 h, read-out: Protective activity ED50; for Protective activity ED50: 240 min
Description: The activity is defined as the dose in mg/kg of body weight to the animal, which prevents in 50% of the treated subjects arising of lesions due to Indomenthacin.
The protective preparations are administered orally in aqueous suspension.

gastric secretion [2] = assay: Comparison of antisecretive activity, rats with tied pylorus, oral aqueous suspension; assay type: in vivo; details: for ED50: Rattus norvegicus, po, read-out: Antisecretive activity (dose which reduces the gastric secretion by 50%)
Description: (*)The antisecretive activity is defined as the dose in mg/kg of body
weight of the animal, which reduces the gastric secretion by 50%. The
evaluation is effected by considering the decrease in quantity of secrete
gastric juice as compared with controls. Rats of an average weight of 200
± 20 grams are employed of which the lower part of the stomach at the
level of the pylorus is tied to collect the gastric juice during the
indicated periods. The preparations are administered orally in the form o

[3] = test system: transit through the stomach and intestine; assay: Anti-spastic activity, vegetable carbon (charcoal) test, rate of transit through the stomach and intestine; assay type: in vivo, mice; details: for ED50: Mus musculus, 2 h; for Antispastic activity ED50: 120 min; for Ratio 3/2: anti-secretive ED50 / anti-spastic ED50 (Table 3)
Description: Particularly marked is the anti-spastic activity which the present compounds exercise on the entire digestive system. Measured in the mouse, using the vegetable carbon test (rate of transit through the stomach and intestine), this activity is in some cases comparatively greater than the anti-secretive activity (Table 3).
(*)The antispastic activity is measured in mice of an average weight of […]
± 3 g by administering a suspension of charcoal in gum arabic and
checking after two hours whether the charcoal has reached the initial
portion of the colon. In non-treated subjects the charcoal reaches this
transit of the charcoal. Evaluation of the results is effected as
ED50 in mg/kg body weight of the animal, i.e., the dose at which the […]

[4] = Acute toxicity (DL50) in the mouse; assay type: in vivo; details: iv (Table 1); for LD50: in vivo, read-out: DL50 value
Source text: *1 DL50 in the mouse mg/kg iv.
Examples of differences between toxicity (DL50 in
the mouse) by intravenous administration and oral
administration in mg/kg. Variation in therapeutic

gastric secretion [5] = assay: Anti-secretive activity in the rat with lig. pylorus, iv; assay type: in vivo
gastric secretion [6] = assay: Anti-secretive activity in the rat by gastric stimulus, oral; assay type: in vivo; details: oral (Table 1); for ED50: read-out: Activity B: anti-secretive activity ED50
Description: *3 Anti-secretive activity in the rat by gastric stimulus, ED50 mg/k

[7] = oral, Indomethacin 16 mg/kg orally
[8] = charcoal after two hours, orally (later Table 3)
[9] = po, charcoal after two hours, orally (later Table 3), read-out: Antispastic activity ED50
[10] = rat with lig. pylorus, iv (Table 1), read-out: Activity A: anti-secretive activity ED50
[11] = mouse, vegetable carbon test (Table 3), read-out: Anti-spastic activity ED50
[12] = Rattus norvegicus, iv, compared with anti-spastic activity (Table 3), read-out: Anti-secretive activity ED50
[13] = Rattus norvegicus, iv, read-out: Activity A: anti-secretive activity ED50
[14] = rat with lig. pylorus, iv (Table 1)

O=C(N[C@@H](Cc1c[nH]c2ccccc12)C(=O)[O-])OCc1ccc(Cl)cc1.[Na+]
Solubility in acetone (Solubility): Highly soluble
Solubility in ethanol (Solubility): Highly soluble
Solubility in methanol (Solubility): Highly soluble
solubility (Solubility): ~50 mg/mL

O=C(N[C@@H](Cc1c[nH]c2ccccc12)C(=O)[O-])c1ccc(Cl)cc1.[Na+]
ED50 [1]: 210 mg/kg
ED50 (gastric secretion [2]; 2.5 h): 118 mg/kg
ED50 (gastric secretion [2]; 5 h): 141 mg/kg
ED50 (gastric secretion [2]; 10 h): 147 mg/kg
ED50 (gastric secretion [2]; 15 h): 410 mg/kg
ED50 ([3]; ip, read-out: Antispastic activity ED50): 82 mg/kg
ED50 ([3]; po, read-out: Antispastic activity ED50): 192 mg/kg
Solubility in acetone (Solubility): Highly soluble
Solubility in ethanol (Solubility): Highly soluble
Solubility in methanol (Solubility): Highly soluble
solubility (Solubility): ~50 mg/mL

[OH][Al]([OH])[OH] [Aluminium hydroxide, reference compound]
Protective activity ([1]; 136mg/kg, oral): inactive

O=C(N[C@@H](Cc1c[nH]c2ccccc12)C(=O)O)OCc1ccc([N+](=O)[O-])cc1 [CR 438 - Calcium salt]
Protective activity ED50 [1, 7]: > 1500 mg/kg/os
Antisecretive activity (dose which reduces the gastric secretion by 50%) (gastric secretion [2]; oral, 2.5 hrs, 150 min): 810 mg/kg
Antisecretive activity (dose which reduces the gastric secretion by 50%) (gastric secretion [2]; oral, 5 hrs, 300 min): 780 mg/kg
Antisecretive activity (dose which reduces the gastric secretion by 50%) (gastric secretion [2]; oral, 10 hrs, 600 min): 972 mg/kg
Antispastic activity ED50 [3, 8]: > 1000 mg/kg

O=C(N[C@@H](Cc1c[nH]c2ccccc12)C(=O)O)OCc1ccc(Cl)cc1 [CR 449 calcium salt, N-p-chloro-carbobenzoxy-L-tryptophane calcium salt]
Protective activity ED50 ([1]; oral, Indomethacin 16 mg/kg orally, calcium salt): 121 mg/kg/os
Antisecretive activity (dose which reduces the gastric secretion by 50%) (gastric secretion [2]; oral, 2.5 hrs, calcium salt, 150 min): 142 mg/kg
Antisecretive activity (dose which reduces the gastric secretion by 50%) (gastric secretion [2]; oral, 5 hrs, calcium salt, 300 min): 112 mg/kg
Antisecretive activity (dose which reduces the gastric secretion by 50%) (gastric secretion [2]; oral, 10 hrs, calcium salt, 600 min): 110 mg/kg
Antisecretive activity (dose which reduces the gastric secretion by 50%) (gastric secretion [2]; oral, 15 hrs, calcium salt, 900 min): 106 mg/kg
Solubility in ethanol (Solubility): soluble
Solubility in methanol (Solubility): soluble
Solubility in water (Solubility): Very slightly soluble

O=C(N[C@@H](Cc1c[nH]c2ccccc12)C(=O)O)OCc1ccc(Br)cc1 [CR 451 - Calcium salt]
Protective activity ED50 [1, 7]: 392 mg/kg/os
Antisecretive activity (dose which reduces the gastric secretion by 50%) (gastric secretion [2]; oral, 2.5 hrs, 150 min): 233 mg/kg
Antisecretive activity (dose which reduces the gastric secretion by 50%) (gastric secretion [2]; oral, 5 hrs, 300 min): 220 mg/kg
Antisecretive activity (dose which reduces the gastric secretion by 50%) (gastric secretion [2]; oral, 10 hrs, 600 min): 337 mg/kg
Antisecretive activity (dose which reduces the gastric secretion by 50%) (gastric secretion [2]; oral, 15 hrs, 900 min): 580 mg/kg
Antispastic activity ED50 [3, 8]: 393 mg/kg

O=C(N[C@@H](Cc1c[nH]c2ccccc12)C(=O)O)c1ccc(Cl)cc1 [CR 501 aluminium salt, N-p-chloro-benzoyl-L-tryptophane aluminium salt]
Protective activity ED50 [1, 7]: 174 mg/kg/os
Antisecretive activity (dose which reduces the gastric secretion by 50%) (gastric secretion [2]; oral, 2.5 hrs, 150 min): 195 mg/kg
Antisecretive activity (dose which reduces the gastric secretion by 50%) (gastric secretion [2]; oral, 5 hrs, 300 min): 152 mg/kg
Antisecretive activity (dose which reduces the gastric secretion by 50%) (gastric secretion [2]; oral, 10 hrs, 600 min): 150 mg/kg
Antisecretive activity (dose which reduces the gastric secretion by 50%) (gastric secretion [2]; oral, 15 hrs, 900 min): 163 mg/kg
Antispastic activity ED50 [3, 8]: 270 mg/kg
Solubility in ethanol (Solubility; listed as Example 56): Soluble
Solubility in methanol (Solubility; listed as Example 56): Soluble
Solubility in water (Solubility; listed as Example 56): very slightly soluble

O=C(N[C@@H](Cc1c[nH]c2ccccc12)C(=O)O)c1ccc(Cl)cc1 [CR 501 magnesium salt, N-p-chloro-benzoyl-L-tryptophane magnesium salt]
Protective activity ED50 [1, 7]: 162 mg/kg/os
Antisecretive activity (dose which reduces the gastric secretion by 50%) (gastric secretion [2]; oral, 2.5 hrs, 150 min): 230 mg/kg
Antisecretive activity (dose which reduces the gastric secretion by 50%) (gastric secretion [2]; oral, 5 hrs, 300 min): 180 mg/kg
Antisecretive activity (dose which reduces the gastric secretion by 50%) (gastric secretion [2]; oral, 10 hrs, 600 min): 146 mg/kg
Antisecretive activity (dose which reduces the gastric secretion by 50%) (gastric secretion [2]; oral, 15 hrs, 900 min): 135 mg/kg
Antispastic activity ED50 [3, 8]: 278 mg/kg
Solubility in ethanol (Solubility; listed as Example 55): soluble
Solubility in methanol (Solubility; listed as Example 55): soluble
Solubility in water (Solubility; listed as Example 55): Very slightly soluble

Cc1ccc(C(=O)N[C@@H](Cc2c[nH]c3ccccc23)C(=O)O)cc1 [CR 510 - Calcium salt]
Protective activity ED50 [1, 7]: 390 mg/kg/os
Antisecretive activity (dose which reduces the gastric secretion by 50%) (gastric secretion [2]; oral, 2.5 hrs, 150 min): 602 mg/kg
Antisecretive activity (dose which reduces the gastric secretion by 50%) (gastric secretion [2]; oral, 5 hrs, 300 min): 574 mg/kg
Antisecretive activity (dose which reduces the gastric secretion by 50%) (gastric secretion [2]; oral, 10 hrs, 600 min): 521 mg/kg
Antisecretive activity (dose which reduces the gastric secretion by 50%) (gastric secretion [2]; oral, 15 hrs, 900 min): 666 mg/kg
Antispastic activity ED50 [3, 8]: 725 mg/kg

O=C([O-])[O-].[Ca+2] [Calcium carbonate, reference compound]
Protective activity ([1]; 140mg/kg, oral): inactive

O=C(N[C@@H](Cc1c[nH]c2ccccc12)C(=O)O)OCc1ccc([N+](=O)[O-])cc1 [Ex.12 (CR438), N-p-nitro-carbobenzoxy-L-tryptophane]
ED50 [1, 7]: 990 mg/kg
ED50 (gastric secretion [2]; 2.5 h, oral, 2.5 hrs): 475 mg/kg
ED50 (gastric secretion [2]; 5 h, oral, 5 hrs): 560 mg/kg
ED50 (gastric secretion [2]; 10 h, oral, 10 hrs): 980 mg/kg
ED50 (gastric secretion [2]; 15 h, oral, 15 hrs): > 1500 mg/kg
LD50 ([4]; iv): 700 mg/kg
ED50 [3, 9]: 870 mg/kg
ED50 (gastric secretion [5]; [10]): 267 mg/kg
ED50 (gastric secretion [6]): 195 mg/kg

Nc1ccc(C(=O)N[C@@H](Cc2c[nH]c3ccccc23)C(=O)O)cc1 [Ex.28 (CR504), N-p-amino-benzoyl-L-tryptophane]
ED50 [1, 7]: > 1500 mg/kg
ED50 (gastric secretion [2]; 2.5 h, oral, 2.5 hrs): 1080 mg/kg
ED50 (gastric secretion [2]; 5 h, oral, 5 hrs): 1090 mg/kg
ED50 (gastric secretion [2]; 10 h, oral, 10 hrs): 1490 mg/kg
ED50 (gastric secretion [2]; 15 h, oral, 15 hrs): > 2000 mg/kg
LD50 [4]: 1670 mg/kg
ED50 [3, 9]: > 1000 mg/kg
ED50 (gastric secretion [5]; [10]): 960 mg/kg
ED50 (gastric secretion [6]): 205 mg/kg

O=C(O)Cc1ccc(NC(=O)[C@H](Cc2c[nH]c3ccccc23)NC(=O)c2ccccc2)cc1 [Ex.41 (CR421), N-benzoyl-L-tryptophyl-p-aminophenylacetic acid]
LD50 [4]: 1000 mg/kg
ED50 [3, 11]: 170 mg/kg
Ratio 3/2 [3]: 2.0
ED50 (gastric secretion [5]; [12]): 322 mg/kg
ED50 (gastric secretion [5]; [10]): 322 mg/kg
ED50 (gastric secretion [6]): 186 mg/kg

O=C(N[C@@H](Cc1c[nH]c2ccccc12)C(=O)O)c1ccccc1Cl [Ex.50 (CR617), N-o-chlorobenzoyl-L-tryptophane]
LD50 [4]: 1270 mg/kg
ED50 [3, 11]: 300 mg/kg
Ratio 3/2 [3]: 1
ED50 (gastric secretion [5]; [12]): 299 mg/kg
ED50 (gastric secretion [5]; [10]): 299 mg/kg
ED50 (gastric secretion [6]): 255 mg/kg

O=C(N[C@@H](Cc1c[nH]c2ccccc12)C(=O)O)OCc1ccccc1Cl [Ex. 3 (CR460), N-o-chloro-carbobenzoxy-L-tryptophane]
LD50 ([4]; iv): 640 mg/kg
ED50 [3, 11]: 58 mg/kg
Ratio 3/2 [3]: 2.0
ED50 (gastric secretion [5]; [12]): 118 mg/kg
ED50 (gastric secretion [5]; [10]): 118 mg/kg
ED50 (gastric secretion [6]): 267 mg/kg

O=C(N[C@H](Cc1c[nH]c2ccccc12)C(=O)O)OCc1ccc(Cl)cc1 [Ex. 5 (CR630), N-p-chloro-carbobenzoxy-D-tryptophane]
LD50 ([4]; iv): 260 mg/kg
ED50 (gastric secretion [5]; [13]): 142 mg/kg
ED50 (gastric secretion [6]): 107 mg/kg

O=C(N[C@@H](Cc1c[nH]c2ccccc12)C(=O)O)OCc1ccc(I)cc1 [Ex. 7 (CR490), N-p-iodo-carbobenzoxy-L-tryptophane]
LD50 ([4]; iv): 166 mg/kg
ED50 (gastric secretion [5]; [13]): 75 mg/kg
ED50 (gastric secretion [6]): 94 mg/kg

N#Cc1ccc(COC(=O)N[C@@H](Cc2c[nH]c3ccccc23)C(=O)O)cc1 [Ex. 8 (CR496), N-p-cyano-carbobenzoxy-L-tryptophane]
LD50 ([4]; iv): 1070 mg/kg
ED50 (gastric secretion [5]; [13]): 202 mg/kg
ED50 (gastric secretion [6]): 340 mg/kg

N-p-bromobenzoyl-L-tryptophyl-phenylacetic acid [Ex.45 (CR511)]
DL50 value [4]: 690 mg/kg
Activity A: anti-secretive activity ED50 (gastric secretion [5]; [14]): 246 mg/kg
Activity B: anti-secretive activity ED50 (gastric secretion [6]): 281 mg/k

N-p-chlorobenzoyl-L-tryptophyl-phenylacetic acid [Ex.46 (CR589)]
DL50 value [4]: 295 mg/kg
Activity A: anti-secretive activity ED50 (gastric secretion [5]; [14]): 189 mg/kg
Activity B: anti-secretive activity ED50 (gastric secretion [6]): 120 mg/k
